Reference: patent US20250136650A1, “COMPOSITIONS AND METHODS FOR DNA BINDING AND TRANSCRIPTIONAL REGULATION” (THE UNIVERSITY OF CHICAGO, priority 2021, published 2025)
Values joined by “and” are separate entries in the source; they are usually repeats but may differ in a detail not shown here. Equal values may be shown once. “Also recorded” adds a separate entry of the source.

How the values were obtained:
UPR element (UPRE) = assay: EMSA, direct binding to UPRE DNA probe; conditions: labeled UPRE DNA probe
Procedure: The DNA binding dimer STR22 (shown in FIG. 21 and FIG. 27) was synthesized. STR22 was subjected to EMSA to measure binding to either the UPR element (UPRE) or AP-1 binding site (AP-1).
Electrophoretic Mobility Shift Assays (EMSAs): For direct DNA binding experiments, STRs were serially diluted at 10× concentration in water and then 1 μL of STR solution was added to 9 μL of 5 nM IRD700-labeled DNA probe bearing either a UPRE or AP-1 motif in a final 1×binding buffer (20 mM HEPES pH 8.0, 150 mM NaCl, 5% glycerol, 1 mM EDTA, 2 mM MgCl2, 0.5 mg/mL BSA, 1 mM DTT, 0.05% NP-40). Samples were incubated for 1 hr at RT. 5 μL of each reaction was loaded on an 8% acrylamide, 0.5×TBE gel equilibrated to 4° C. Samples were resolved for 60 min at 110 V and 4° C. with 0.5×TBE+1 mM MgCl2 running buffer. Gels were pre-run at 110 V for 15 min prior to sample loading. For competition experiments, 30 or 60 nM STRs and 5 nM labeled UPRE probe were incubated with 0, 7.8, 13, 21.6, 36, 60 or 100 nM unlabeled competitor oligo for 1 hr at RT. Gels were imaged using a Li—COR Odyssey. ImageJ was used to quantify band intensity and the fraction of bound DNA was calculated by dividing the band intensity of bound DNA by the band intensity of free DNA from the vehicle treated lane. A four-parameter dose-response curve fit to a plot of normalized fraction bound DNA vs. log STR concentration yielded an the apparent KD. […]

HeLa cells = assay: Fluorescence microscopy of cell penetration; type: cell-based, human
Procedure: HeLa cells were treated with STR4-FITC (FIG. 4) or STR22-FITC (FIG. 5), at 5 μM for up to 24 hours. […] STR22 was retained at high levels for at least 24 hours following cell treatment.
Fluorescence Microscopy and Quantitative Analysis. HeLa cells were seeded in 12-well chamber slides with 2,500 cells per well (Ibidi, 81201). Once cells reached 40-50% confluency, they were treated with either DMSO, or 5 μM FITC-labeled STR for indicated durations. For shorter treatment times (<24 hrs), cells were grown to 70-80% confluency before start of treatment.
At the end of treatment, cells were washed with phosphate buffered saline (PBS) four times, fixed with 4% formaldehyde in PBS at room temperature for 10 mins, and then washed twice with PBS. Nuclei were labeled with DAPI (Thermo, D1306) in PBS at room temperature for 3 mins. Rubber gaskets and chambers were removed, and slides were dried in the dark at room temperature. When dry, cover glass (Fisher, #12-545 M) was mounted with 50 μL anti-fade mounting solution (Invitrogen, P36961), and sealed with nail polish. A Leica SP8 Laser Scanning Confocal with HyD detectors was used to image a single focal plane to accurately detect the DAPI and FITC signal. Identical microscope acquisition parameters were set and used within experiments to control for exposure. […] Loss-less TIFF files were employed to quantify fluorescence intensity.

[1] = system: MDA-MB-231 cells, HRE-regulated genes (GLUT1, VEGFA, PGK1); assay: qPCR of hypoxia-induced genes, MDA-MB-231; type: cell-based, human; conditions: MDA-MB-231, 20 μM
Procedure: The effect of STR22 on cell growth and invasion in culture under normoxic or hypoxic conditions was determined.
Real-Time PCR. mRNA was extracted using RNeasy plus Mini Kit (Qiagen). 1.5 μg mRNA sample was reverse transcribed into cDNA using a reverse transcription kit (Invitrogen A48570) and then subjected to SYBR-green based real-time PCR analysis (Invitrogen A25741). Primers used: […]

MDA-MB-231 cells = assay: Relative cell growth, MDA-MB-231; type: cell-based, human
Procedure: Trypan Blue Cell Viability Assay. MDA-MB-231 cells were treated with DMSO or […] STR22 every 24 hours for 24 hours (FIG. 104A) or 120 hours (FIG. 104B) under 1% 02 and then trypsinized for 5 minutes at 37° C., 5% CO2, 1% 02 and then quenched with a double volume of DMEM media. The cell suspension was then collected and subjected for trypan blue viability reading using trypan blue cell viability analyzer (Beckman Coulter Vi-CELL XR).

MDA-MB-231 tumors = assay: MDA-MB-231 mammary fat pad xenograft in nude mice; type: in vivo, mouse
From the text: Moreover, hypoxia-induced gene signatures have also been associated with poor disease outcomes in TNBC patients^41,42. Given these associations, the inventors sought to determine how STR22 antagonism of HIF1α-dependent signaling would affect TNBC cell phenotypes in cell culture and in vivo. […] Therefore, the inventors sought to determine whether STR22 treatment would affect the growth of TNBC cells in the in vivo context of tumor xenografts. To do so, the inventors generated MDA-MB-231 xenografts in the mammary fat pads of nude mice; after tumors reached 100 mm^3-a size previously shown capable of creating hypoxic microenvironments^43-matched cohorts (n=10) were treated once every three days with intratumoral injections of STR22 or saline vehicle alone (FIG. 104C). […] A separate study using fewer MDA-MB-231 cells to generate xenografts replicated these findings ([…]). […] Mouse Xenograft Studies. […] Tumor growth was monitored twice a week using digital caliper measurements in two dimensions (A, B) to estimate volume. Tumor volume was calculated as: (A*B^2)/2, where B is the […] diameter and A is the diameter perpendicular to B. Tumor growth (V/V0) or final volume/mass was shown as mean+/-s.e.m. with P values determined by multiple unpaired t-tests. […]

## XBP1-derived stapled dimer: RRK^KNR^AAQTARDRKKA#LSELEQQVVDLE linked to RRK^KNR^AAQTARDRKKARLSEL#QQVVDLE; FIG. 27 [STR22]
UPR element (UPRE)
  Kd: 14.2 nM and 11 nM
HeLa cells; FITC-labeled analogs, 12 hours
  intracellular distribution / fluorescence (confocal): distributed throughout both cytosolic and nuclear compartments
HeLa cells; FITC-labeled, 5 μM, up to 24 hours
  penetration of HeLa cells: penetration
[1]
  hypoxia-induced gene expression (qPCR): significantly inhibited expression of downstream HRE-regulated target gene mRNAs; also recorded: reduction in hypoxia-induced gene expression; also recorded: inhibited this induction
MDA-MB-231 cells
  cell growth under hypoxic conditions: significantly slowed cell growth
  proliferation under normoxic conditions: little effect on the proliferation
MDA-MB-231 tumors; 24 hours after last injection
  HIF1α-dependent target gene expression in tumors (qPCR): inhibition of hypoxia-induced gene expression
MDA-MB-231 tumors; nude mice, intratumoral injections, about three weeks
  tumor volume: significantly inhibited
